In patent US20130178441A1, “Methods for Extending Progression-Free Survival using 10-Propargyl-10-Deazaaminopterin” (ALLOS THERAPEUTICS, INC., priority 2010, published 2013):
Values joined by “and” are separate entries in the source; they are usually repeats but may differ in a detail not shown here. Equal values may be shown once. “Also recorded” adds a separate entry of the source. Marks after values point to notes of the source that are not given here.

Columns and labels:
[1] = tested on: relapsed/refractory PTCL; assay: PROPEL subset analysis: second-line pralatrexate after first-line CHOP only (N=15) vs other patients (n=94); assay type: in vivo, human
Description: The most common therapy for first-line treatment of PTCL is the multi-agent combination cyclophosphamide/doxorubicin/vincristine prednisone (CHOP). However, most patients progress within 6-12 months, and there is no standard of care for second-line treatment of these patients. Thus optimal second-line approaches are needed and agents based on a unique mechanism of action warrant study. This analysis was conducted to determine if pralatrexate offered a beneficial second-line treatment option. […] All patients in the PROPEL study had received at least 1 prior therapy for PTCL. […] The efficacy in these patients was compared with the remainder of the patient population who had not received CHOP as their only therapy for PTCL prior to pralatrexate (n=94).

[2] = tested on: relapsed or refractory PTCL; assay: Progressive resistance analysis: PFS and response rate on pralatrexate vs previous lines of therapy (PDX-008, patients as their own control); assay type: in vivo, human; settings: for Progression-free Survival Median: Kaplan-Meier
Description: Analysis of progressive resistance. The treatment immediately prior to entry into clinical trial PDX-008 provides data from a heterogeneous control group reflecting clinical practice with which to compare the efficacy of pralatrexate. This dataset has the benefit of being from the same patients as those receiving pralatrexate, and so avoids inter-subject variation.
Methodology: In order to explore this progressive resistance concept, retrospective analyses were performed looking at patients' response and PFS to prior therapies using patients as their own control. It was hypothesized that the response rates and PFS would be lower with each subsequent line of therapy (hypothesis #1). Analyses were conducted on those patients who received at least 3 prior therapies. PFS and response rate of third prior therapy (−3) were compared with those of the second prior therapy (−2), PFS and response rate of second prior therapy (−2) were compared with those last line of therapy (−1) prior to pralatrexate, and PFS and response rate of last line of therapy (−1) were compared with pralatrexate therapy for these patients. These analyses utilized investigator assessment of PFS, and response since central review of tumor assessments on prior therapies was not available.
Therefore, an analysis was conducted on all patients comparing PFS and response rate of last line of therapy with those of pralatrexate therapy.
For examining hypothesis #1, there were 57 patients (−3) who had undergone at least 3 prior therapies before entry into PDX-008. […] Examination of the pattern beyond 3 previous treatments would be progressively uninformative as fewer and fewer patients would be entered into the analysis. 1. See also FIG. 2.
There were 86 patients who had undergone at least 2 prior therapies before entry into PDX-008. This cohort included the 57 patients who received 3 or more previous treatments and 29 additional patients who received exactly 2 treatments prior to treatment with pralatrexate.
For examining hypothesis #2, PFS and response rate were compared following pralatrexate treatment with the treatment immediately prior to study entry for all 109 PTCL patients evaluated for efficacy in PDX-008. This cohort included the 86 patients who received 2 or more previous treatments and 23 patients who received only 1 treatment prior to pralatrexate.
Overview of Calculations: Time to progression of disease (PD) was calculated from the start date of the prior therapy administered to the date of progression+1 day.
PFS time was calculated as the number of days from start of prior treatment to the date of PD (date of PD−start date of prior treatment+1).
PFS time was calculated as the number of days from start of treatment to the date of PD or death, regardless of cause (date of PD or death−start date of pralatrexate treatment+1).
In addition, the PFS hazard ratio (HR), along with 95% confidence intervals (CIs), were estimated via the Cox regression model.
To assess the objective response rate (ORR) and PFS with each subsequent line of therapy and the effect of pralatrexate on ORR and PFS: In the first population group (n=57), i.e., group including patients with ≧3 prior systemic therapies, PFS and ORR of the third therapy prior to pralatrexate (−3) were compared with those of the second prior therapy (−2) to pralatrexate; PFS and ORR of the second prior therapy (2) were compared with those of the most recent line of therapy (−1) prior to pralatrexate; and PFS and ORR of the most recent line of therapy (−1) were compared with pralatrexate therapy for these patients.
In the second population group (n=86), i.e., group including patients with ≧2 prior systemic therapies, PFS and ORR of the second prior therapy (2) were compared with those of the most recent line of therapy (−1) prior to pralatrexate; and PFS and ORR of the most recent therapy (−1) were compared with pralatrexate therapy for these patients.

[3] = 15 patients with CHOP as only prior therapy
[4] = individual responders after first-line CHOP, central review, most values censored
[5] = other patients in the study (n=94)
[6] = second-line after CHOP, N=15, central review
[7] = second-line after CHOP, N=15, investigator
[8] = second-line after CHOP, N=15, investigator, Kaplan-Meier
[9] = second-line after CHOP, N=15, investigator, Kaplan-Meier, listed as pralatrexate
[10] = all patients (≧1 prior therapy), N=109, investigator assessment
[11] = patients with ≧2 previous treatments, N=86, investigator assessment
[12] = patients with ≧3 previous treatments, N=57, investigator assessment

C#CCC(Cc1cnc2nc(N)nc(N)c2n1)c1ccc(C(=O)N[C@@H](CCC(=O)O)C(=O)O)cc1 (mixture of isomers) [Pralatrexate, (2S)-2-[[4-[(1RS)-1-[(2,4-diaminopteridin-6-yl)methyl]but-3-ynyl]benzoyl]amino]pentanedioic acid]
CR/CRu by investigators assessment [1, 3]: 33% | Complete responses [CR] by independent central review [1, 3]: 20% | ORR by investigator assessment [1, 3]: 40% | Overall response rate (ORR) by independent central review [1, 3]: 47% | Duration of Response ([1]; individual responder after first-line CHOP, central review, censored (initiation of other subsequent therapy)): 1 day^a | Duration of Response (months) [1, 4]: 10.1^a months and 9.7^b months and 8.3^b months and 6.5^a months and 3.3^c months and 2.3^c months | PFS (months) [1, 4]: 14.8^a months and 17.8^b months and 15.5^b months and 8.1 months and 4.6^c months and 3.4^c months and 4.6^a months | Duration of Response (months) ([1]; individual responders after first-line CHOP, central review, most values censored, listed as pralatrexate): 2.3 months and 3.3 months | Patients still alive at the time of last contact ([1]; of the 15 patients): 73% | Patients who proceeded to a stem cell transplant upon attaining a response to pralatrexate ([1]; of the 15 patients treated only with CHOP): Two | CR/CRu by investigators assessment ([1]; other patients (n=94)): 16% | Median PFS according to central review ([1]; other patients (n=94)): 3.1 months | Median PFS per investigator assessment ([1]; other patients (n=94)): 3.5 months | Median duration of response per investigator assessment ([1]; other patients (n=94)): 6.7 months | ORR by investigators assessment ([1]; other patients (n=94)): 39% | CR/CRu by independent central review [1, 5]: 10% | ORR by independent central review [1, 5]: 27% | 12-month OS estimate ([1]; second-line after CHOP, N=15): 73% | OS, Median, months (95% CI) ([1]; second-line after CHOP, N=15, NE = not able to estimate): not able to be estimated | PFS, Range [1, 6]: 0.7-17.8^c months | Tumor Response: CRu [1, 6]: 0 (0) n (%) | Tumor Response: Not evaluable [1, 6]: 0 (0) n (%) | Tumor Response: ORR (CR + CRu + PR) [1, 6]: 7 (47) n (%) | Tumor response: CR [1, 6]: 3 (20) n (%) | Tumor response: PD [1, 6]: 4 (27) n (%) | Tumor response: PR [1, 6]: 4 (27) n (%) | Tumor response: SD [1, 6]: 4 (27) n (%) | PFS, Median, months (95% CI) ([1]; second-line after CHOP, N=15, central review, Kaplan-Meier): 8.1 (4.6, NE) months | PFS, Median, months (95% CI) ([1]; second-line after CHOP, N=15, central review, Kaplan-Meier, listed as pralatrexate): 8.1 months | Duration of response, Median, months (95% CI) ([1]; second-line after CHOP, N=15, central review, NE = not able to estimate, insufficient PD events): not reached; also recorded: not yet estimable | Tumor Response: CRu [1, 7]: 1 (7) n (%) | Tumor Response: Not evaluable [1, 7]: 1 (7)^a n (%) | Tumor Response: ORR (CR + CRu + PR) [1, 7]: 6 (40) n (%) | Tumor response: CR [1, 7]: 4 (27) n (%) | Tumor response: PD [1, 7]: 4 (27) n (%) | Tumor response: PR [1, 7]: 1 (7) n (%) | Tumor response: SD [1, 7]: 4 (27) n (%) | Duration of response, Median, months (95% CI) [1, 8]: 12.5 (10.8, NE) months | PFS, Median, months (95% CI) [1, 8]: 7.4 (2.3, 15.0) months | Duration of response, Median, months (95% CI) [1, 9]: 12.5 months | PFS, Median, months (95% CI) [1, 9]: 7.4 months | OS, Range ([1]; second-line after CHOP, N=15, survival follow-up ended at 2 years): 1.5-24.0^d months | Current disease-free period (duration of response to pralatrexate + time since stem cell transplant) ([1]; the 2 patients who proceeded to stem cell transplant): 20.9 months and 27.2 months and 20.1 months and 21.7 months | Response Rate [2, 10]: 39% | Progression-free Survival Median [2, 10]: 121.00 days | PFS Hazard Ratio, −1 vs pralatrexate ([2]; all patients, N=109, Cox regression, 95% CI): 1.051 | Response Rate (ORR) [2, 11]: 40% | Progression-free Survival Median [2, 11]: 119.00 days | Progression-free Survival Median ([2]; patients with ≧2 previous treatments, N=86, investigator assessment, listed as pralatrexate): 119 days | Trend of decreased ORR and PFS with successive lines of therapy ([2]; patients with ≧3 or ≧2 previous treatments): reversed | Response Rate (ORR) [2, 12]: 40% | Progression-free Survival Median [2, 12]: 134.00 days | Progression-free Survival Median ([2]; patients with ≧3 previous treatments, N=57, investigator assessment, listed as pralatrexate): 134 days
